Reference: patent US4892865A, “Pyrrolo[2,3-d]pyrimidine nucleosides as antiviral agents” (The Regents of the University of Michigan, priority 1987, dated 1990)
Where two headings read alike, the source gives them in different places.

Legend:
[1] = test system: Human Immunodeficiency Virus Type 1 (HIV-1); assay: CPE-inhibition assay with HIV-1 in ATH8 cells; type: cell-based; details: Human immunodeficiency virus 1, ATH-8, 240 h, read-out: 50% Inhibitory Concentration, Virus Tested: HIV
Procedure: (§1) The human OKT4^+ T-cell clone, ATH8, was obtained from Dr. Samuel Broder's laboratory (NCI) through Dr. Hiroaki Mitsuya. These cells are propagated in RPMI 1640 medium supplemented with 4 mM glutamine, 15% heat-inactivated fetal bovine serum, antibiotics (50 units of penicillin and 50 μg of streptomycin per ml), and 50 units of recombinant-derived human interleukin-2 (ala-125; AMGen Biologicals) per ml. […]
The testing of compounds for antiviral activity employed the modified CPE-inhibition assay described in Mitsuya, H.; Weinhold, K. J.; Furman, P. A.; St. Clair, M. H.; Lehrman, S. N.; Gallo, R. C.; Bolognesi, D.; Barry, D. W.; Broder, S. Proc. Natl. Acad. Sci. USA, (1985) 82, 7096 and Mitsuya, H.; Broder, S. Proc. Natl. Acad. Sci. USA, 1986, 83 1911. […] The protective effect of test compounds was assessed by adding them at varying concentrations to the cultured cells at the time of virus infection, then monitoring the status of the cell pellet.
(§2) ATH8 cells were used as the primary targeted cells in the HIV-induced CPE-inhibition assay. […] These compounds were evaluated at seven half-log dilutions. […] On day 10 post-infection aliquots were taken from individual wells and the total cell number and cell viability (based on trypan-blue dye exclusion) determined. […]

[2] = Visual cytotoxicity in uninfected BSC-1 cells; type: cell-based; details: african green monkey, visual cytotoxicity scored on uninfected BSC cells at time of HSV1 plaque determination, read-out: 50% Inhibitory Concentration, Cytotoxicity: BSC
Procedure: (§3) KB cells, an established human cell line derived from an epidermoid oral carcinoma, were routinely grown in minimal essential medium (MEM) with Hanks salts [MEM(H)] supplemented with 5% fetal bovine serum. African green monkey kidney (BSC-1) cells and diploid human foreskin fibroblasts (HFF cells) were grown in MEM with Earle's salts [MEM(E)] supplemented with 10% fetal bovine serum. Cells were passaged according to conventional procedures as described in Shipman, C., Jr.; Smith, S. H.; Carlson, R. H.; Drach, J. C. Antimicrob. Agents Chemother., 1976, 9, 120. The plaque-purified isolate, PO, of the Towne strain of HCMV was used in all experiments and was a gift of Dr. Mark Stinski, University of Iowa. The S-148 strain of HSV-1 was provided by Dr. T. W. Schafer of Schering Corp. Stock preparations of HCMV and HSV-1 were prepared and titered as described in Turk, S. R.; Shipman, C., Jr.; Nassari, R.; Genzlinger, G.; Krawczyk, S. H.; Townsend, L. B.; Drach, J. C. Antimicrob. Agents Chemother., 1987, 31, 544.
(§4) Two basic tests for cellular cytotoxicity were routinely employed for compounds examined in antiviral assays. Cytotoxicity produced in HFF and BSC-1 cells was estimated by visual scoring of cells not affected by virus infection in the plaque reduction assays described above. Cytopathology was estimated at 35- and 60-fold magnification and scored on a zero to four plus basis on the day of staining for plaque enumeration. Cytotoxicity in KB cells was determined by measuring the effects of compounds on the incorporation of radioactive precursors into DNA, RNA and protein as described in Turk, S. R.; Shipman, C., Jr.; Nassari, R.; Genzlinger, G.; Krawczyk, S. H.; Townsend, L. B.; Drach, J. C. Antimicrob. Agents Chemother., 1987, 31, 544.
(§5) Dose-response relationships were constructed by linearly regressing the percent inhibition of parameters derived in the preceding sections against log drug concentrations. 50% inhibitory (I50) concentrations were calculated from the regression lines. The three I50 concentrations for inhibition of DNA, RNA and protein synthesis were averaged to give the values reported in Table I for KB cell cytotoxicity. Samples containing positive controls (acyclovir, ganciclovir, or vidarabine) were used in all assays. Results from sets of assays were rejected if inhibition by the positive control deviated from its mean response by more than 1.5 standard deviations.
(§6) ^b Visual cytotoxicity scored on uninfected HFF or BSC cells at time
(§7) of HCMV or HSV1 plaque determination.

[3] = test system: Herpes Virus Type 1 (HSV-1); assay: HSV-1 plaque reduction in BSC-1 cells; type: cell-based; details: read-out: 50% Inhibitory Concentration, Virus Tested: HSV-1
Procedure: as §3
(§8) HCMV plaque reduction experiments were performed using monolayer cultures of HFF cells by a procedure similar to that referenced above for titration of HCMV, with the exceptions that the virus inoculum (0.2 ml) contained approximately 50 PFU of HCMV and the compounds to be assayed were dissolved in the overlay medium. HSV-1 plaque reduction experiments were performed using monolayer cultures of BSC-1 cells. The assay was performed exactly as referenced above for HSV-1 titration assays except that the 0.2 ml of virus suspension contained approximately 100 PFU of HSV-1 and the compounds to be tested were dissolved in the overlay medium.
as §5
^a In experiments with HSV1 both the HF and 148 strains were used.

[4] = Cytotoxicity in ATH8 cells (total cell number and viability, trypan-blue dye exclusion); type: cell-based; details: human; uninfected ATH8 cells; read-out: 50% Inhibitory Concentration, Cytotoxicity: ATH8
Procedure: as §1, with “ml. The clone H9 cell lines, an OKT4^+ human T-cell line which is permissive for HIV replication but largely resistant to virus-induced CPE, H9 cells productively infected with the HTLV-IIIB strain of HIV, and H9 cells productively infected with the RF-II Haitian variant of HIV have been obtained from Dr. Robert Gallo's laboratory (NCI) through Dr. Howard Streicher.” for “ml.”
as §2
Dose-response relationships were constructed by linearly regressing the percent inhibition of parameters derived in the preceding sections against log drug concentrations. 50% inhibitory (I50) concentrations were calculated from the regression lines. […]

[5] = test system: Human Cytomegalovirus (HCMV); assay: HCMV plaque reduction in HFF cells; type: cell-based, HCMV (Towne strain, isolate PO); human foreskin fibroblasts; details: read-out: 50% Inhibitory Concentration, Virus Tested: HCMV
Procedure: as §3, §8, §5

[6] = Visual cytotoxicity in uninfected HFF cells; type: cell-based; details: human; visual cytotoxicity scored on uninfected HFF cells at time of HCMV plaque determination; read-out: 50% Inhibitory Concentration, Cytotoxicity: HFF
Procedure: as §3, §4, §5, §6, §7

[7] = Cytotoxicity in KB cells (inhibition of DNA, RNA and protein synthesis); type: cell-based; details: human, average of inhibition of DNA, read-out: 50% Inhibitory Concentration, Cytotoxicity: KB
Procedure: as §3, §4, §5
^c Average percent inhibition of DNA, RNA and protein synthesis
determined in KB cells as described in the text.

[8] = Human alphaherpesvirus 1, in Chlorocebus sabaeus, plaque reduction, BSC-1 cells, both the HF and 148 strains were used
[9] = Human betaherpesvirus 5, plaque reduction, HFF cells
[10] = Human alphaherpesvirus 1, BSC-1, in Chlorocebus sabaeus

## N#Cc1cn([C@H]2CC[C@@H](CO)O2)c2ncnc(N)c12 [Dideoxytoyocamycin, 4-amino-5-cyano-7-(2',3'-dideoxy-β-D-ribofuranosyl)-pyrrolo-[2,3-d]-pyrimidine]
[1]; ATH8 cells, day 10 post-infection
  IC50: 3 µM
[2]
  CC50: > 100 µM
[3]; [8]
  IC50: 21 µM
[4]
  CC50: 100 µM
[5]; [9]
  IC50: 18 µM
[6]
  CC50: > 100 µM
[7]
  CC50: 54 µM

## Nc1ncnc2c1ccn2[C@H]1C=C[C@@H](CO)O1 [Dideoxydidehydrotubercidin, 4-amino-7(2',3'-dideoxy-2',3'-didehydro-β-ribofuranosyl)-pyrrolo[2,3-d] pyrimidine]
[2]
  CC50: > 100 µM
[3]; [8]
  IC50: > 100 µM
[5]; [9]
  IC50: > 100 µM
[6]
  CC50: > 100 µM

## Nc1ncnc2c1ccn2[C@H]1CC[C@@H](CO)O1 [Dideoxytubercidin, 4-amino-7-(2',3'-dideoxy-β-D-ribofuranosyl)pyrrolo[2,3-d]-pyrimidine]
[2]
  CC50: > 100 µM
[3]; [8]
  IC50: > 100 µM
[5]; [9]
  IC50: > 100 µM
[6]
  CC50: > 100 µM

## NC(=O)c1cn([C@H]2C=C[C@@H](CO)O2)c2ncnc(N)c12 [Dideoxydidehydrosangivamycin, 4-amino-7-(2',3'-dideoxy-2',3'-didehydro-β-D-ribofuranosyl)-pyrrolo-[2,3-d]pyrimidine-5-carboxamide]
[2]
  CC50: > 100 µM
[3]; [10]
  IC50: > 100 µM
[5]; Human betaherpesvirus 5, HFF
  IC50: > 100 µM
[6]
  CC50: > 100 µM
[7]
  CC50: 54 µM

## NC(=O)c1cn([C@H]2CC[C@@H](CO)O2)c2ncnc(N)c12 [Dideosysangivamycin, 4-amino-7-(2',3'-dideoxy-β-D-ribofuranosyl)pyrrolo[2,3-d]-pyrimidine-5-carboxamide]
[1]
  IC50: 3 µM
[2]
  CC50: > 100 µM
[3]; [10]
  IC50: > 100 µM
[4]
  CC50: 100 µM
[5]; Human betaherpesvirus 5, HFF
  IC50: > 100 µM
[6]
  CC50: > 100 µM
[7]
  CC50: > 100 µM

## N#Cc1cn([C@H]2C=C[C@@H](CO)O2)c2ncnc(N)c12 [Dideoxydidehydrotoyocamycin, 4-amino-5-cyano-7-(2',3'-dideoxy-2',3'-didehydro-β-D-glycero-pentofuranosyl)-pyrrolo[2,3-d]pyrimidine]
[2]
  CC50: > 100 µM
[3]; [8]
  IC50: 41 µM
[5]; [9]
  IC50: 5.1 µM
[6]
  CC50: > 100 µM
[7]
  CC50: > 100 µM
